For one test, the system named is P. aeruginosa DSMZ 1117. The class given is cell-based, Pseudomonas aeruginosa. Particulars: for Reduction in adhered bacteria [%]: P. aeruginosa, polyester; for Reduction in adhered bacteria [%] P. aeruginosa: polyester fabric, application concentration 0.1 wt %, commercial product applied directly by padding, relative to uncoated fabric. As to the method:
Circular fabric samples with a diameter of 0.6 cm were punched from coated and uncoated cotton and polyester fabrics. The fabric samples were fixed to a microtiter plate. The fabric samples were washed with acetone and sterilized with UV light for 60 minutes.
The strains were coated fresh from glycerol bacterial cultures onto tryptic soy agar (TSA). Incubation took place overnight at 33° C. The nutrient medium prepared was a tryptic soy broth (TSB), with 30% of the amount recommended by the manufacturer, supplemented with 0.25% of glucose. […] The nutrient medium was inoculated with the bacterial cultures and after inoculation was cultivated overnight at 37° C. and 160 rpm.
The resulting overnight cultures were centrifuged at 8500 g for 15 minutes and washed with 50 ml of isotonic saline solution (0.9 wt %). Bacterial suspensions in isotonic saline solutions were prepared. The optical density of the various bacterial suspensions was determined at 595 nm and adjusted to a level of about 1.2.
50 μl of the final microorganism suspension in isotonic saline solution (0.9 wt %) prepared as described under 2.2 were added to the coated and uncoated fabric samples fixed on the microtiter plate (see 2.1). The microtiter plates were closed and sealed off with Parafilm. The microtiter plates were placed in an antievaporation box and incubated at 33° C. for 2 h and at 40 rpm. The expected colony-forming unit count (CFU) of the inoculum at the start was 10^6-10^7 CFU/ml.
After the biofilm had formed, the planctonic cells were removed and used as a sample for determining the optical density at 595 nm. For this purpose, the samples were made up to a volume of 150 μl, and 100 μl were withdrawn for the optical density determination in a photometer. […] Through the determination of the planctonic cells after the formation of biofilm, the amount of bacteria available for adhesion was monitored.
The fabric samples and the resulting biofilm were washed three times with 200 to 300 μl of isotonic saline solution.
The fabric samples obtained under 2.4 (after formation of biofilm) were placed together with 100 μl of isotonic saline solution into wells of a 96-well microtiter plate.
Investigations into the removal of the adhered microorganisms from the fabric surfaces were carried out with vortexing, ultrasound, with enzymatic treatment, or with combinations thereof. Treatment in the vortex amounted to 5 minutes and was performed horizontally. The ultrasound treatment was carried out in an ultrasound bath for 5 minutes. For the enzymatic removal, the fabric samples were treated with enzymes, such as trypsin or a mixture of different enzymes, for example, during incubation at 37° C. for 1 hour.
Following removal of the adhered bacteria, the fabric samples were removed from the microtiter plates.
The number of removed bacteria in the resulting suspension was determined by staining with Syto9 and fluorescence measurement (fluorescence filter with excitation at 485/20 nm and emission at 528/20 nm) or by staining with BacTiterGlo and bioluminescence measurement. Furthermore, it is possible to determine the number of adhered and removed microorganisms by means of protein assay (e.g., BCA assay, Bradford Assay) or optical density proliferation assay.
The relative variables (e.g., fluorescence units (RFU)) concerning the coated and uncoated fabrics were compared, allowing the reduction in adhered bacteria in % to be determined in accordance with the following formula: Reduction in adhered bacteria[%]=[(RFUuc−RFUuc)/RFUuc]*100 where • RFUuc=relative fluorescence units of the removed bacteria of the uncoated substrate • RFUc=relative fluorescence units of the removed bacteria of the coated substrate
The commercial products described in example 1 were applied directly by a padding method to polyester fabric samples.
Bacterial adhesion to the polyester fabric samples was investigated using the microtiter plate Syto9 assay, as described in example 2.

In test [1] the test system is Staphylococcus aureus. The class given is cell-based. Particulars: for Reduction in cell count relative to control [%] S. aureus: coated glass slide vs uncoated glass control K; for Cell count [1/cm^2] S. aureus: glass slide coated from 0.1% strength solution, bacterial suspension 10^9 microbes/ml, 30 measuring windows. From the text:
(§1) Silane derivatives S1, S3, S4 and S5 as identified above in example 1 were used to produce coatings on glass slides. As a control (comparison sample) K, an uncoated glass slide cleaned with isopropanol was used.
(§2) For the coating of the slides they were immersed for 60 seconds into a 0.1% strength solution of the corresponding silane derivative in ethanol/water as solvent with a water fraction of 5%. The solutions had been adjusted with acetic acid beforehand to a pH in the range from 4 to 5. The wetted slides were subsequently dried at 160° C. for 1 hour.
(§3) The slides wetted with the bacterial suspension were analyzed by microscope to determine the adhering bacteria. […] The fluorescent dye used was DAPI (4′,6-diamidine-2-phenylindole), which binds to DNA and fluoresces under UV excitation. In order to determine the adhesion characteristics, the cell counts per cm^2 were ascertained in 30 measuring windows, and the adhesion pattern was evaluated. Cell attachment was evaluated on an Olympus IX 51 using the Labflow AnalySIS image processing program.
(§4) Bacterial suspensions produced and used were suspensions of test cultures of the strains Staphylococcus aureus and Escherichia coli. The concentration of the bacterial suspension was 10^9 microbes/ml.

Test [2] concerns Staphylococcus aureus. Nature of the test: Antimicrobial activity of coated polyester fabric samples as per JIS L 1902. The class given is cell-based. The following applies: for Antimicrobial activity[log] Unwashed: 18 hours at 37° C. The protocol: The procedure here is that the fabric sample was inoculated with a defined amount of a microbial suspension (inoculum). Test specimens with a weight of approximately 0.4 g were investigated in a triplicate determination.
The inoculated fabric sample was incubated in a closed system at 37° C. over a period of 18 hours. Following incubation, the bacteria of a defined amount of a dilution solution were recorded. The difference in the bacterial count of the fabric sample at 0 hours in comparison to the fabric sample after 18 hours served as a basis for evaluation. The antimicrobial activity is reported as a logarithmic or percentage value. Here, a reduction in the microbe count of 0% corresponds to inadequate antimicrobial action, a microbe reduction in the range from 0.1 to less than 90% to an inadequate antibacterial action, and a microbe reduction of greater than 90% to a good antibacterial action.

A further test concerns Escherichia coli. Nature of the test: Bacterial adhesion to coated glass slides via fluorescence microscopy (DAPI). Particulars: for Reduction in cell count relative to control [%] E. coli: coated glass slide vs uncoated glass control K; for Cell count [1/cm^2] E. coli: glass slide coated from 0.1% strength solution, bacterial suspension 10^9 microbes/ml, 30 measuring windows. The class given is cell-based.
Description: as §1, §2, §3, §4

Setting [3] is: coating concentration 0.001 %, wash pretreatment (A) unwashed.
Setting [4] is: coating concentration 0.001 %, wash pretreatment (B) washed twice at 30° C. only with water.
[5] abbreviates: coating concentration 0.001 %, wash pretreatment (C) washed once at 30° C. EN ISO 6330 method 8A with ECE B detergent.
Setting [6] is: coating concentration 0.01 %, wash pretreatment (A) unwashed.
Setting [7] is: coating concentration 0.01 %, wash pretreatment (B) washed twice at 30° C. only with water.
[8] abbreviates: coating concentration 0.01 %, wash pretreatment (C) washed once at 30° C. EN ISO 6330 method 8A with ECE B detergent.
The mark [9] stands for this setting: coating concentration 0.1 %, wash pretreatment (A) unwashed.
The mark [10] stands for this setting: coating concentration 0.1 %, wash pretreatment (B) washed twice at 30° C. only with water.
Setting [11] is: coating concentration 0.1 %, wash pretreatment (C) washed once at 30° C. EN ISO 6330 method 8A with ECE B detergent.
The mark [12] stands for this setting: coating concentration 0.001 % based on fabric.
Where [13] appears, read: coating concentration 0.01 % based on fabric.
The mark [14] stands for this setting: coating concentration 0.1 % based on fabric.

Like-named read-outs stand apart in the source and are kept apart here.

For the compound `CO[Si](CCCN(CCN(CC(=O)[O-])CC(=O)[O-])CC(=O)[O-])(OC)OC.[Na+].[Na+].[Na+]` [S5, N-(trimethoxysilylpropyl)ethylenediaminetriacetyl acid, trisodium salt], the “Reduction in adhered bacteria [%]” value in the test with P. aeruginosa DSMZ 1117 (setting [3]) amounted to 81%; in the test on P. aeruginosa DSMZ 1117 (setting [4]), 42%; in the test on P. aeruginosa DSMZ 1117 (setting [5]), 77%; with P. aeruginosa DSMZ 1117 (setting [6]), 78%; in the test with P. aeruginosa DSMZ 1117 (setting [7]) it was 54%; in the test with P. aeruginosa DSMZ 1117 (setting [8]), 73%. Besides, the “Reduction in adhered bacteria [%]” value is listed as 68% in the test on P. aeruginosa DSMZ 1117 (setting [9]), 69% in the test with P. aeruginosa DSMZ 1117 (setting [10]) and 67% in the test on P. aeruginosa DSMZ 1117 (setting [11]). The “Reduction in adhered bacteria [%] P. aeruginosa” value in the test on P. aeruginosa DSMZ 1117 was 17%. The “Reduction in cell count relative to control [%] S. aureus” value in the test with Staphylococcus aureus [1] amounted to 52%. Further, in the test on Staphylococcus aureus [1], the “Cell count [1/cm^2] S. aureus” value is 219 000 1/cm^2. For the same compound, the “Antimicrobial activity[log] Unwashed” value with Staphylococcus aureus [2] (setting [12]) is 0.5 log; in the test on Staphylococcus aureus [2] (setting [13]), −0.3 log; with Staphylococcus aureus [2] (setting [14]), −0.5 log. For the same compound, the “Antimicrobial activity[log] Washed once at 30° C., without detergent” value in the test with Staphylococcus aureus [2] (setting [12]) is −0.3 log; in the test on Staphylococcus aureus [2] (setting [13]), −0.6 log; with Staphylococcus aureus [2] (setting [14]), −0.6 log. Also, the “Antimicrobial activity[log] Washed twice with water” value was 0.9 log with Staphylococcus aureus [2] (setting [12]), −0.2 log in the test on Staphylococcus aureus [2] (setting [13]) and −0.4 log in the test on Staphylococcus aureus [2] (setting [14]). Besides, the “Reduction in cell count relative to control [%] E. coli” value in the test with Escherichia coli turned out to be 61%. The “Cell count [1/cm^2] E. coli” value in the test on Escherichia coli is recorded as 306 000 1/cm^2.

In the case of “N-(triethoxysilylpropyl)-O-polyethylene oxide-urethane, (4-6 EO units) [S3]”, the “Reduction in adhered bacteria [%]” value in the test on P. aeruginosa DSMZ 1117 (setting [3]) worked out at 63%; in the test with P. aeruginosa DSMZ 1117 (setting [4]), 46%; with P. aeruginosa DSMZ 1117 (setting [5]) it was 69%; in the test on P. aeruginosa DSMZ 1117 (setting [6]), 65%; in the test on P. aeruginosa DSMZ 1117 (setting [7]) it was 37%; in the test with P. aeruginosa DSMZ 1117 (setting [8]), 71%. In addition, the “Reduction in adhered bacteria [%]” value in the test on P. aeruginosa DSMZ 1117 (setting [9]) was found to be 85%; with P. aeruginosa DSMZ 1117 (setting [10]), 36%; in the test with P. aeruginosa DSMZ 1117 (setting [11]), 76%. Also, in the test with P. aeruginosa DSMZ 1117, the “Reduction in adhered bacteria [%] P. aeruginosa” value was 48%. For the same compound, the “Reduction in cell count relative to control [%] S. aureus” value with Staphylococcus aureus [1] is 83%. Also, the “adhesion of S. aureus to coated glass, assessment in words” value with Staphylococcus aureus [1] (coated glass slides) is “Very good results”. Besides, the “Cell count [1/cm^2] S. aureus” value with Staphylococcus aureus [1] was 77 000 1/cm^2. For the same compound, the results for the “Antimicrobial activity[log] Unwashed” value in the test on Staphylococcus aureus [2] (setting [12]), in the test with Staphylococcus aureus [2] (setting [13]) and in the test with Staphylococcus aureus [2] (setting [14]) were −0.5 log, −0.1 log and 0.0 log, respectively. The “Antimicrobial activity[log] Washed once at 30° C., without detergent” value in the test with Staphylococcus aureus [2] (setting [12]) is listed as −0.8 log; in the test on Staphylococcus aureus [2] (setting [13]), −0.1 log; in the test with Staphylococcus aureus [2] (setting [14]) it was −0.4 log. Also, the “Antimicrobial activity[log] Washed twice with water” value is recorded as −0.3 log in the test on Staphylococcus aureus [2] (setting [12]), 0.8 log with Staphylococcus aureus [2] (setting [13]) and 0.3 log in the test with Staphylococcus aureus [2] (setting [14]). Moreover, in the test with Escherichia coli (both series of tests (S. aureus and E. coli), compared with glass control), the “adhesion of bacteria to coated glass, assessment in words” value is “very good results”. Moreover, the “Reduction in cell count relative to control [%] E. coli” value in the test with Escherichia coli came out at 71%. For the same compound, the “Cell count [1/cm^2] E. coli” value with Escherichia coli is on record as 233 000 1/cm^2.

(Values after patent US10132029B2, “Method for reducing adhesion of microorganisms to fabrics” (priority 2013, dated 2018).)
